From US12116357B2, “Heteroaryl-triazole and heteroaryl-tetrazole compounds as pesticides” (Bayer Aktiengesellschaft, priority 2018, dated 2024)

Experiments:
Format in all cases: in vivo
Rhipicephalus sanguineus = Rhipicephalus sanguineus in-vitro contact test, adult brown dog ticks
Method: (§1) 9 mg compound is solved in 1 ml acetone and diluted with acetone to the desired concentration. 250 μl of the test solution is filled in 25 ml glass test tubes and homogeneously distributed on the inner walls by rotation and tilting on a shaking device (2 h at 30 rpm). With a compound concentration of 900 ppm, an inner surface of 44.7 cm^2 and a homogeneous distribution, a dose of 5 μg/cm^2 is achieved.
(§2) After the solvent has evaporated, each test tube is filled with 5-10 adult brown dog ticks (Rhipicephalus sanguineus), closed with a perforated lid and incubated in a lying position at room temperature and relative humidity. After 48 hours efficacy is determined. The ticks are patted on the ground of the tubes and are incubated on a heating plate at 45-50° C. for at most 5 minutes. Immotile or uncoordinated moving ticks, which are not able to escape the heat by climbing upwards, are marked as dead or moribund.
An efficacy of 100% means all ticks are dead or moribund; 0% means no ticks are dead or moribund.

Boophilus microplus = Boophilus microplus injection test; details: Rhipicephalus microplus, 168 h, 20 μg/animal, egg deposition after 7 days, read-out: efficacy (infertile eggs)
Method: (§3) • Solvent: dimethyl sulfoxide
To produce a suitable preparation of active compound, 10 mg of active compound are dissolved in 0.5 ml solvent, and the concentrate is diluted with solvent to the desired concentration.
Five adult engorged female ticks (Boophilus microplus) are injected with 1 μl compound solution into the abdomen. The ticks are transferred into replica plates and incubated in a climate chamber.
After 7 days egg deposition of fertile eggs is monitored. Eggs where fertility is not visible are stored in a climate chamber till hatching after about 42 days. An efficacy of 100% means all eggs are infertile; 0% means all eggs are fertile.

Ctenocephalides felis [1] = assay: Ctenocephalides felis oral test; details: 48 h, 100 ppm in cattle blood, after 2 days
Method: as §3
To produce a suitable preparation of active compound, 10 mg of active compound are dissolved in 0.5 ml solvent, and the concentrate is diluted with cattle blood to the desired concentration.
Approximately 20 adult unfed cat fleas (Ctenocephalides felis) are placed in flea chambers. The blood chamber, sealed with parafilm on the bottom, are filled with cattle blood supplied with compound solution and placed on the gauze covered top of the flea chamber, so that the fleas are able to suck the blood. The blood chamber is heated to 37° C. whereas the flea chamber is kept at room temperature.
After 2 days mortality in % is determined. 100% means all the fleas have been killed; 0% means none of the fleas have been killed.

Myzus persicae [2] = assay: Myzus persicae oral test; details: 120 h
Method: • Solvent: 100 parts by weight acetone
To produce a suitable preparation of active compound, 1 part by weight of active compound is mixed with the stated amount of solvent, and the concentrate is diluted with water to the desired concentration. 50 μl compound solution is filled in microtiter plates and 150 μl IPL41 insect medium (33%+15% sugar) is added to obtain a total volume of 200 μl per well. Afterwards the plates are sealed with parafilm through which a mixed population of the green peach aphid (Myzus persicae) can suck on the compound preparation.
(§4) After 5 days mortality in % is determined. 100% means all aphids have been killed and 0% means none of the aphids have been killed.

Nezara viridula = Nezara viridula spray test; details: 96 h
Method: (§5) • Solvent: 78.0 parts by weight of acetone • 1.5 parts by weight of dimethylformamide • Emulsifier: alkylarylpolyglycol ether
(§6) To produce a suitable preparation of active compound, 1 part by weight of active compound is mixed with the stated amount of solvent, and the concentrate is diluted with water, containing an emulsifier concentration of 1000 ppm, to the desired concentration. Further test concentrations are prepared by dilution with emulsifier containing water.
Barley plants (Hordeum vulgare) infested with larvae of the southern green stink bug (Nezara viridula) are sprayed with a test solution containing the desired concentration of the active ingredient.
After 4 days mortality in % is determined. 100% means all the stink bugs have been killed; 0% means none of the stink bugs have been killed.

Phaedon cochleariae = Phaedon cochleariae spray test; details: 168 h, after 7 days
Method: as §5
as §6, with “solvents” for “solvent,”, “and” for “and the concentrate”
Chinese cabbage (Brassica pekinensis) leaf disks are sprayed with a preparation of the active ingredient of the desired concentration. Once dry, the leaf disks are infested with mustard beetle larvae (Phaedon cochleariae).
After 7 days mortality in % is determined. 100% means all beetle larvae have been killed and 0% means none of the beetle larvae have been killed.

Spodoptera frugiperda = Spodoptera frugiperda spray test; details: 168 h
Method: (§7) • Solvent: 78.0 parts by weight acetone • 1.5 parts by weight dimethylformamide • Emulsifier: alkylarylpolyglycol ether
as §6, with “solvents” for “solvent,”, “and” for “and the concentrate”
Maize (Zea mays) leaf sections are sprayed with a preparation of the active ingredient of the desired concentration. Once dry, the leaf sections are infested with fall armyworm larvae (Spodoptera frugiperda).
After 7 days mortality in % is determined. 100% means all caterpillars have been killed and 0% means none of the caterpillars have been killed.

Ctenocephalides felis [3] = assay: Ctenocephalides felis in-vitro contact test, adult cat flea; details: 5 μg/cm^2, after 48 hours, read-out: efficacy (fleas dead or moribund)
Method: as §1
as §2, with “cat fleas (Ctenocephalides felis),” for “brown dog ticks (Rhipicephalus sanguineus),”, “fleas” for “ticks”, “fleas,” for “ticks,”
An efficacy of 100% means all fleas are dead or moribund; 0% means no fleas are dead or moribund.

[4] = system: Aedes aegypti strain MONHEIM; assay: Aedes aegypti test (surface treatment & contact assay); details: 24 hours after contact, read-out: efficacy (mortality); for mortality at 20 mg/m2: surface concentration 20 mg/m^2, 30 min exposure
Method: (§8) • Solvent: Aceton+2000 ppm rapeseed oil methyl ester (RME)
(§9) In order to produce a sufficient, active ingredient containing solution it is necessary to solve the test compound in the solvent-mix (acetone at 2 mg/ml/RME 2000 ppm). This solution is pipetted onto a glazed tile and after evaporation of the acetone, adult mosquitoes of the species Aedes aegypti strain MONHEIM are placed onto the dried surface. The exposure time is 30 minutes.
(§10) Mortality in percent (%) is determined 24 hours after contact of the insects to the treated surface. 100% mortality means that all tested insects are dead, whereas 0% means that no insect died.

[5] = system: Anopheles funestus strain FUMOZ-R; assay: Anopheles funestus test (surface treatment & contact assay); details: 24 hours after contact, read-out: efficacy (mortality); for mortality at 4 mg/m2: surface concentration 4 mg/m^2, 30 min exposure; for mortality at 20 mg/m2: surface concentration 20 mg/m^2, 30 min exposure
Method: as §8
as §9, with “Anopheles funestus” for “Aedes aegypti”, “FUMOZ-R (Hunt et al., Med. Vet. Entomol. 2005 September; 19(3): 271-275)” for “MONHEIM”
as §10

[6] = system: Musca domestica strain WHO-N; assay: Musca domestica test (surface treatment & contact assay); details: 24 hours after contact, read-out: efficacy (mortality)
Method: as §8
as §9, with “flies” for “mosquitoes”, “Musca domestica” for “Aedes aegypti”, “WHO-N” for “MONHEIM”
as §10

Myzus persicae [7] = assay: Myzus persicae spray test; details: 120 h
Method: as §7
as §6, with “solvents” for “solvent,”, “and” for “and the concentrate”
Chinese cabbage (Brassica pekinensis) leaf disks infected with all instars of the green peach aphid (Myzus persicae), are sprayed with a preparation of the active ingredient of the desired concentration.
as §4

Nilaparvata lugens = Nilaparvata lugens spray test; details: 96 h
Method: as §5
as §6, with “solvents” for “solvent,”, “and” for “and the concentrate”
Rice plants (Oryza sativa) are sprayed with a preparation of the active ingredient of the desired concentration and the plants are infested with the brown planthopper (Nilaparvata lugens).
After 4 days mortality in % is determined. 100% means all planthoppers have been killed and 0% means none of the planthoppers have been killed.

[8] = surface concentration 4 mg/m^2, 30 min exposure

Structure (SMILES)	efficacy (ticks dead or moribund) (Rhipicephalus sanguineus; 1 μg/cm^2, after 48 hours) [%]	efficacy (ticks dead or moribund) (Rhipicephalus sanguineus; 5 μg/cm^2, after 48 hours) [%]	pest or weed control at 0.02 mg (Boophilus microplus) [%]	mortality at 100 ppm (Ctenocephalides felis [1]) [%]	mortality at 4 ppm (Myzus persicae [2]) [%]	mortality at 20 ppm (Myzus persicae [2]) [%]	mortality at 500 g/ha (Nezara viridula) [%]	mortality at 500 g/ha (Phaedon cochleariae) [%]	mortality at 500 g/ha (Spodoptera frugiperda) [%]	pest or weed control at 5 µg/cm2 (Ctenocephalides felis [3]) [%]	mortality at 4 mg/m2 [4, 8] [%]	mortality at 20 mg/m2 [4] [%]	mortality at 4 mg/m2 [5] [%]	mortality at 20 mg/m2 [5] [%]	mortality at 20 mg/m2 ([6]; surface concentration 20 mg/m^2, 30 min exposure) [%]	mortality at 500 g/ha (Myzus persicae [7]) [%]	mortality at 500 g/ha (Nilaparvata lugens) [%]	mortality at 4 mg/m2 [6, 8] [%]
COCCN(C(=O)c1cc(Cl)cc(C(F)(F)F)c1)C(C)c1ncnn1-c1ncccn1 (stereo not drawn) [Example I-005]	80	80	100	100	100	100	90	100	100									
CC(c1ncnn1-c1ncccn1)N(Cc1ncccn1)C(=O)c1cc(Cl)cc(C(F)(F)F)c1 (stereo not drawn) [Example I-010]			100	100	100	100	100	100	100	100	80 to 100	90 to 100	85 to 100	85 to 100	90 to 100			
CC(c1ncnn1-c1ncccn1)N(CC1CSC1)C(=O)c1cc(Cl)cc(C(F)(F)F)c1 (stereo not drawn) [Example I-011]			95	100	100	100	100	100	100			90 to 100	85 to 100	85 to 100		100	100	90 to 100
CC(c1ncnn1-c1ncccn1)N(CC1OCCO1)C(=O)c1cc(Cl)cc(C(F)(F)F)c1 (stereo not drawn) [Example I-023]			100	100	100				100	80				85 to 100		100		
CC(c1ncnn1-c1ncccn1)N(C(=O)c1cc(Cl)cc(C(F)(F)F)c1)C1CS(=O)(=O)C1 (stereo not drawn) [Example I-025]				100	100	100	100	100				90 to 100	85 to 100	85 to 100			90	
CCON(C(=O)c1cccc(C(F)(F)F)c1)C(C)c1ncnn1-c1ncccn1 (stereo not drawn) [Example I-029]		80	100	80	100		100			100								
COCCN(C(=O)c1cc(Cl)cc(S(C)(=O)=O)c1)C(C)c1ncnn1-c1ncccn1 (stereo not drawn) [Example I-031]			100	100	100		100			80				85 to 100		100	100	
CSCCN(C(=O)c1cc(Cl)cc(S(C)(=O)=O)c1)C(C)c1ncnn1-c1ncccn1 (stereo not drawn) [Example I-032]					100		100			100						90	100	
CSCCN(C(=O)c1cc(Cl)cc(Cl)c1)C(C)c1ncnn1-c1ccc(C#N)cn1 (stereo not drawn) [Example I-036]					100		90		100	100						90		
CSCCN(C(=O)c1cc(Cl)cc(S(F)(F)(F)(F)F)c1)C(C)c1ncnn1-c1ccc(C#N)cn1 (stereo not drawn) [Example I-039]							100		100	100						100		
CSCCN(C(=O)c1cc(F)cc(C2CC2)c1)C(C)c1ncnn1-c1ccc(C#N)cn1 (stereo not drawn) [Example I-040]										100						100		
CC(c1ncnn1-c1ncccn1)N(CCNS(C)(=O)=O)C(=O)c1cc(Cl)cc(C(F)(F)F)c1 (stereo not drawn) [Example I-041]					100				100							90		
CCOC(=O)NCCN(C(=O)c1cc(Cl)cc(C(F)(F)F)c1)C(C)c1ncnn1-c1ncccn1 (stereo not drawn) [Example I-042]					100		100		100							100	100	
CC(=O)NCCN(C(=O)c1cc(Cl)cc(C(F)(F)F)c1)C(C)c1ncnn1-c1ncccn1 (stereo not drawn) [Example I-043]					100		100		100							100		
